Measurements from ChEMBL document CHEMBL3856199, “Melanoma-targeted delivery system (part 2): Synthesis, radioiodination and biological evaluation in B16F0 bearing mice” (Eur J Med Chem, 2016).

Assays:
[1] = Drug uptake in abdomen of C57BL/6J mouse implanted with mouse B16F0 cells at 3.7 MBq, iv measured at 1 hr post injection by scintigraphic imaging analysis; assay type: ADME, organism-based; conditions: in vivo
[2] = Drug uptake in tumor of C57BL/6J mouse implanted with mouse B16F0 cells at 3.7 MBq, iv measured at 1 hr post injection by gamma counting analysis; assay type: ADME, organism-based, Neoplasm; conditions: in vivo
[3] = Drug uptake in tumor of C57BL/6J mouse implanted with mouse B16F0 cells at 3.7 MBq, iv measured at 72 hrs post injection by gamma counting analysis; assay type: ADME, organism-based, Neoplasm; conditions: in vivo
[4] = Drug uptake in liver of C57BL/6J mouse implanted with mouse B16F0 cells at 3.7 MBq, iv measured at 1 hr post injection by gamma counting analysis; assay type: ADME, organism-based; conditions: in vivo
[5] = Drug uptake in liver of C57BL/6J mouse implanted with mouse B16F0 cells at 3.7 MBq, iv measured at 3 hrs post injection by gamma counting analysis; assay type: ADME, organism-based; conditions: in vivo
[6] = Drug uptake in liver of C57BL/6J mouse implanted with mouse B16F0 cells at 3.7 MBq, iv measured at 6 hrs post injection by gamma counting analysis; assay type: ADME, organism-based; conditions: in vivo
[7] = Drug uptake in liver of C57BL/6J mouse implanted with mouse B16F0 cells at 3.7 MBq, iv measured at 24 hrs post injection by gamma counting analysis; assay type: ADME, organism-based; conditions: in vivo
[8] = Drug uptake in liver of C57BL/6J mouse implanted with mouse B16F0 cells at 3.7 MBq, iv measured at 72 hrs post injection by gamma counting analysis; assay type: ADME, organism-based; conditions: in vivo
[9] = Drug uptake in kidney of C57BL/6J mouse implanted with mouse B16F0 cells at 3.7 MBq, iv measured at 1 hr post injection by gamma counting analysis; assay type: ADME, organism-based; conditions: in vivo
[10] = Drug uptake in kidney of C57BL/6J mouse implanted with mouse B16F0 cells at 3.7 MBq, iv measured at 6 hrs post injection by gamma counting analysis; assay type: ADME, organism-based; conditions: in vivo
[11] = Drug uptake in kidney of C57BL/6J mouse implanted with mouse B16F0 cells at 3.7 MBq, iv measured at 24 hrs post injection by gamma counting analysis; assay type: ADME, organism-based; conditions: in vivo
[12] = Drug uptake in stomach of C57BL/6J mouse implanted with mouse B16F0 cells at 3.7 MBq, iv measured at 1 hr post injection by gamma counting analysis; assay type: ADME, organism-based; conditions: in vivo
[13] = Drug uptake in stomach of C57BL/6J mouse implanted with mouse B16F0 cells at 3.7 MBq, iv measured at 3 hrs post injection by gamma counting analysis; assay type: ADME, organism-based; conditions: in vivo
[14] = Drug uptake in stomach of C57BL/6J mouse implanted with mouse B16F0 cells at 3.7 MBq, iv measured at 6 hrs post injection by gamma counting analysis; assay type: ADME, organism-based; conditions: in vivo
[15] = Drug uptake in stomach of C57BL/6J mouse implanted with mouse B16F0 cells at 3.7 MBq, iv measured at 72 hrs post injection by gamma counting analysis; assay type: ADME, organism-based; conditions: in vivo
[16] = Drug uptake in intestine of C57BL/6J mouse implanted with mouse B16F0 cells at 3.7 MBq, iv measured at 3 hrs post injection by gamma counting analysis; assay type: ADME, organism-based; conditions: in vivo
[17] = Drug uptake in intestine of C57BL/6J mouse implanted with mouse B16F0 cells at 3.7 MBq, iv measured at 6 hrs post injection by gamma counting analysis; assay type: ADME, organism-based; conditions: in vivo
[18] = Drug uptake in intestine of C57BL/6J mouse implanted with mouse B16F0 cells at 3.7 MBq, iv measured at 24 hrs post injection by gamma counting analysis; assay type: ADME, organism-based; conditions: in vivo
[19] = Drug uptake in intestine of C57BL/6J mouse implanted with mouse B16F0 cells at 3.7 MBq, iv measured at 72 hrs post injection by gamma counting analysis; assay type: ADME, organism-based; conditions: in vivo
[20] = Drug uptake in thyroid/submaxillary glands of C57BL/6J mouse implanted with mouse B16F0 cells at 3.7 MBq, iv measured at 1 hr post injection by gamma counting analysis; assay type: ADME, organism-based, Submaxillary gland/Thyroid; conditions: in vivo
[21] = Drug uptake in thyroid/submaxillary glands of C57BL/6J mouse implanted with mouse B16F0 cells at 3.7 MBq, iv measured at 3 hrs post injection by gamma counting analysis; assay type: ADME, organism-based, Submaxillary gland/Thyroid; conditions: in vivo
[22] = Drug uptake in thyroid/submaxillary glands of C57BL/6J mouse implanted with mouse B16F0 cells at 3.7 MBq, iv measured at 6 hrs post injection by gamma counting analysis; assay type: ADME, organism-based, Submaxillary gland/Thyroid; conditions: in vivo
[23] = Drug uptake in thyroid/submaxillary glands of C57BL/6J mouse implanted with mouse B16F0 cells at 3.7 MBq, iv measured at 24 hrs post injection by gamma counting analysis; assay type: ADME, organism-based, Submaxillary gland/Thyroid; conditions: in vivo
[24] = Drug uptake in thyroid/submaxillary glands of C57BL/6J mouse implanted with mouse B16F0 cells at 3.7 MBq, iv measured at 72 hrs post injection by gamma counting analysis; assay type: ADME, organism-based, Submaxillary gland/Thyroid; conditions: in vivo
[25] = Drug uptake in eyes of C57BL/6J mouse implanted with mouse B16F0 cells at 3.7 MBq, iv measured at 3 hrs post injection by gamma counting analysis; assay type: ADME, organism-based, Eye; conditions: in vivo
[26] = Drug uptake in eyes of C57BL/6J mouse implanted with mouse B16F0 cells at 3.7 MBq, iv measured at 6 hrs post injection by gamma counting analysis; assay type: ADME, organism-based, Eye; conditions: in vivo
[27] = Drug uptake in eyes of C57BL/6J mouse implanted with mouse B16F0 cells at 3.7 MBq, iv measured at 24 hrs post injection by gamma counting analysis; assay type: ADME, organism-based, Eye; conditions: in vivo
[28] = Drug uptake in blood of C57BL/6J mouse implanted with mouse B16F0 cells at 3.7 MBq, iv measured at 1 hr post injection by gamma counting analysis; assay type: ADME, organism-based; conditions: in vivo
[29] = Drug uptake in blood of C57BL/6J mouse implanted with mouse B16F0 cells at 3.7 MBq, iv measured at 6 hrs post injection by gamma counting analysis; assay type: ADME, organism-based; conditions: in vivo
[30] = Drug uptake in blood of C57BL/6J mouse implanted with mouse B16F0 cells at 3.7 MBq, iv measured at 24 hrs post injection by gamma counting analysis; assay type: ADME, organism-based; conditions: in vivo
[31] = Drug uptake in muscles of C57BL/6J mouse implanted with mouse B16F0 cells at 3.7 MBq, iv measured at 3 hrs post injection by gamma counting analysis; assay type: ADME, organism-based, Muscle tissue; conditions: in vivo
[32] = Drug uptake in muscles of C57BL/6J mouse implanted with mouse B16F0 cells at 3.7 MBq, iv measured at 6 hrs post injection by gamma counting analysis; assay type: ADME, organism-based, Muscle tissue; conditions: in vivo
[33] = Drug uptake in muscles of C57BL/6J mouse implanted with mouse B16F0 cells at 3.7 MBq, iv measured at 24 hrs post injection by gamma counting analysis; assay type: ADME, organism-based, Muscle tissue; conditions: in vivo
[34] = Drug uptake in muscles of C57BL/6J mouse implanted with mouse B16F0 cells at 3.7 MBq, iv measured at 72 hrs post injection by gamma counting analysis; assay type: ADME, organism-based, Muscle tissue; conditions: in vivo
Mus musculus [35] = assay: Toxicity in C57BL/6J mouse assessed as rough coat at 3.7 MBq, iv measured up to 72 hrs post injection; assay type: organism-based; conditions: in vivo
Mus musculus [36] = assay: Toxicity in C57BL/6J mouse assessed as closed eyes at 3.7 MBq, iv measured up to 72 hrs post injection; assay type: organism-based; conditions: in vivo
[37] = Ratio of drug uptake in tumor to blood in C57BL/6J mouse implanted with mouse B16F0 cells at 3.7 MBq, iv measured at 72 hrs post injection; assay type: ADME, organism-based
[38] = Ratio of drug uptake in tumor to muscle in C57BL/6J mouse implanted with mouse B16F0 cells at 3.7 MBq, iv measured at 3 hrs post injection; assay type: ADME, organism-based; conditions: in vivo

Row | Drug uptake [1] | Drug uptake [2] [% ID/g] | Drug uptake [3] [% ID/g] | Drug uptake [4] [% ID/g] | Drug uptake [5] [% ID/g] | Drug uptake [6] [% ID/g] | Drug uptake [7] [% ID/g] | Drug uptake [8] [% ID/g] | Drug uptake [9] [% ID/g] | Drug uptake [10] [% ID/g] | Drug uptake [11] [% ID/g] | Drug uptake [12] [% ID/g] | Drug uptake [13] [% ID/g] | Drug uptake [14] [% ID/g] | Drug uptake [15] [% ID/g] | Drug uptake [16] [% ID/g] | Drug uptake [17] [% ID/g] | Drug uptake [18] [% ID/g] | Drug uptake [19] [% ID/g] | Drug uptake [20] [% ID/g] | Compound | also measured
1 | Active | 2.23 | 0.37 | 1.12 | 1.23 | 0.47 | 0.13 | 0.11 | 1.99 | 0.87 | 0.2 | 19.21 | 27.07 | 6.67 | 0.23 | 2.88 | 1.24 | 0.4 | 0.27 | 11.05 | CCN(CC)CCNC(=O)c1cnc2cc(NC(=O)COc3ccc(SSCCOC(=O)O[C@H]4C[C@H](n5cc([125I])c(=O)[nH]c5=O)O[C@@H]4CO)cc3)ccc2n1 | Drug uptake [21]: 20.47 % ID/g; Drug uptake [22]: 26.6 % ID/g; Drug uptake [23]: 19.5 % ID/g; Drug uptake [24]: 11.36 % ID/g; Drug uptake [25]: 0.85 % ID/g; Drug uptake [26]: 0.28 % ID/g; Drug uptake [27]: 0.09 % ID/g; Drug uptake [28]: 2.14 % ID/g; Drug uptake [29]: 1 % ID/g; Drug uptake [30]: 0.13 % ID/g; Drug uptake [31]: 0.51 % ID/g; Drug uptake [32]: 0.19 % ID/g; Drug uptake [33]: 0.04 % ID/g; Drug uptake [34]: 0.06 % ID/g; Activity (Mus musculus [35]): Non-Toxic; Activity (Mus musculus [36]): Non-Toxic; Kp at 72 h [37]: 1.12; Ratio [38]: 5.59
2 | Active | 2.79 | 0.33 | 1.3 | 0.63 | 0.24 | 0.08 | 0.04 | 2.57 | 0.38 | 0.12 | 18.09 | 12.33 | 4.19 | 0.2 | 1.27 | 0.77 | 0.34 | 0.24 | 13.63 | O=c1[nH]c(=O)n([C@H]2C[C@H](O)[C@@H](CO)O2)cc1[125I] | Drug uptake [21]: 14.55 % ID/g; Drug uptake [22]: 14.26 % ID/g; Drug uptake [23]: 22.45 % ID/g; Drug uptake [24]: 4.17 % ID/g; Drug uptake [25]: 0.43 % ID/g; Drug uptake [26]: 0.24 % ID/g; Drug uptake [27]: 0.04 % ID/g; Drug uptake [28]: 3.17 % ID/g; Drug uptake [29]: 0.52 % ID/g; Drug uptake [30]: 0.07 % ID/g; Drug uptake [31]: 1.06 % ID/g; Drug uptake [32]: 0.11 % ID/g; Drug uptake [33]: 0.02 % ID/g; Drug uptake [34]: 0.03 % ID/g; Activity (Mus musculus [35]): Non-Toxic; Activity (Mus musculus [36]): Non-Toxic; Kp at 72 h [37]: 14.4; Ratio [38]: 3.75
